“And” between values parts separate entries of the source, which are not always exact repeats. Identical values can stand only once. Where only a bound is given, the exact number is not on record here.

Assay [1] deals with Demodex folliculorum. The experiment in a line: In vitro killing: survival time of live adult demodex from epilated lashes in test solutions. The settings on record: for killing effect on Demodex in words (relative to TTO): in vitro; for ST: survival time of demodex: 150 = still alive (no effect). How it is done: TT shampoo was from Kato Sales, Inc. (Altamonte Springs, Fla., USA). TTO was diluted with mineral oil into different concentrations.
Under the microscope, if the epilated lash contained live demodex, different solutions were added to the coverslip edge. The movement of demodex body and legs was continuously observed for 150 minutes. The survival time (ST) (Table 2 below) was counted from the time when the solution was added to the time when the movement ceased (See FIG. 1) The average ST tested for a given solution in a number of mites was used to compare the in vitro killing effect. If demodex remained alive at the end of 150 minutes, this value was denoted as no effect. Because demodex in an earlier life stage was more vulnerable, we only tested adult demodex that had 4 pairs of well developed legs and stumpy body. Because demodex buried in cylindrical dandruff (CD) might preclude the killing effect, we only tested demodex of which the whole body was fully exposed to the test solution.

Assay [2] has as its system Demodex folliculorum. Conditions: Norn 1970; cited from earlier work.

Consider `CC1=CCC(O)(C(C)C)CC1` (centres unmarked) [Terpinen-4-ol], for which, in the assay with Demodex folliculorum [1], the “killing effect on Demodex in words (relative to TTO)” value (shortened to “killing effect … (relative to TTO)”) was “active ingredient”.
As to “povidone iodine [PI, reference compound]”, the “ST: survival time of demodex” value with Demodex folliculorum [1] (10% solution, observed 150 min) turned out to be 150 min.
With `CCO` [Alc, alcohol, reference compound], the “ST: survival time of demodex” value came out at 150 min in the assay on Demodex folliculorum [1] (75% solution) and 3.9 ± 1.2 min with Demodex folliculorum [1] (100% solution, adult mites, observed 150 min, mean±S.D.). The “time to kill demodex” value in the assay with Demodex folliculorum [2] was “within several minutes”.
With `CC12CCC(CC1)C(C)(C)O2` [Eucalyptol], in the assay with Demodex folliculorum [1] (concentration not given), the “Killing effect on Demodex (Time in minutes), Average” value (“Killing effect on Demodex … Average” for short) worked out at 36.8 min; the “Killing effect on Demodex (Time in minutes), single mite” value (“Killing effect on Demodex … single mite” below) is 30 min and 35 min and 40 min and 42 min. Moreover, in the assay on Demodex folliculorum [1], the “killing effect … (relative to TTO)” value is recorded as “not as effective as TTO”.
Take `c1ccccc1` [benzene]: the “time to kill demodex” value in the assay on Demodex folliculorum [2] was “within several minutes”.
Turning to `CC[C@@H]1C(=O)OC[C@@H]1Cc1cncn1C` [Pilo, pilocarpine, reference compound], the “Killing effect on Demodex … Average” value is 150 min in the assay on Demodex folliculorum [1] (2%, 150 = no effect) and 150 min in the assay on Demodex folliculorum [1] (4%, 150 = no effect). The “Killing effect on Demodex … single mite” value in the assay on Demodex folliculorum [1] (2%, 150 = no effect) worked out at 150 min; in the assay with Demodex folliculorum [1] (4%, 150 = no effect), 150 min. For the same compound, the “ST: survival time of demodex” value was 150 min in the assay on Demodex folliculorum [1] (4% solution) and more than 150 min in the assay on Demodex folliculorum [1] (4% solution, listed as Pilocarpine).
As for `C=C(C)[C@H]1CC=C(C)C(=O)C1` [(+)-Carvone], the “Killing effect on Demodex … Average” value with Demodex folliculorum [1] (25%) was found to be 22.7 min; in the assay on Demodex folliculorum [1] (50%), 11.6 min; in the assay on Demodex folliculorum [1] (100%) it was 4.2 min. For the same compound, the “Killing effect on Demodex … single mite” value was 25 min and 20 min and 23 min in the assay with Demodex folliculorum [1] (25%); 13 min and 8 min and 10 min and 11 min and 16 min with Demodex folliculorum [1] (50%); 4 min and 5 min and 3 min in the assay with Demodex folliculorum [1] (100%). Besides, the “killing effect … (relative to TTO)” value with Demodex folliculorum [1] is reported as “as effective as TTO”.
In the case of `CCOCC` [ether], the “time to kill demodex” value in the assay on Demodex folliculorum [2] is “within several minutes”.
Regarding `C=C(C)[C@H]1CC=C(C)CC1` [(+)-Limonene, (R)-(+)-Limonene], in the assay on Demodex folliculorum [1] (97%), the “Killing effect on Demodex … Average” value was found to be 66.8 min. In addition, the “killing effect … (relative to TTO)” value with Demodex folliculorum [1] was “not as effective as TTO”.
Consider xylol, for which the “time to kill demodex” value with Demodex folliculorum [2] is reported as “within several minutes”.
